Laboratory results taken from US10906933B2, “Coupled peptide chain for dissolving poorly soluble polypeptides and application thereof for separation and purification in liquid chromatography” (Spec-Chem Industry Inc., priority 2015, dated 2021).

Assay: Dissolving capacity evaluation of peptide chains at 2 mg/mL in solvents
Type: physicochemical
Conditions: for Dissolving capacity, ACN:H2O (1:3): 2 mg/mL in ACN:H2O (1:3) solution in HPLC; for Dissolving capacity, DMF: 2 mg/mL in DMF solution; for Dissolving capacity, DMSO: 2 mg/mL in DMSO solution
Procedure: This test evaluated the dissolving capacity of each group of peptide chain at 2 mg/mL in a DMF solution, a DMSO solution, an ACN:H2O (1:3) solution in HPLC, and an LiOH saturated solution, respectively. The poorly soluble polypeptide chain-linker arm-hydrophilic polypeptide chain in embodiments 1 and 2 were taken as Groups 1 and 2, respectively, and a separate poorly soluble polypeptide chain […] (SEQ ID NO: 1) was taken as a control group, as shown in Table 3: […]

[1] = listed as ILVLLIII (SEQ ID NO: 1) 4-HMBA-DDDDDEEKEEEE (SEQ ID NO: 2)

| Dissolving capacity, ACN:H2O (1:3) [1] | Dissolving capacity, DMF [1] | Dissolving capacity, DMSO [1] | Sequence | Dissolving capacity, ACN:H2O (1:3) | Dissolving capacity, DMF | Dissolving capacity, DMSO | Dissolving capacity, LiOH saturated solution (2 mg/mL in LiOH saturated solution, listed as second group) |
| --- | --- | --- | --- | --- | --- | --- | --- |
|  |  |  | ILVLLIII (SEQ ID NO: 1) (Poorly soluble polypeptide) [Group 3, the target peptide, reference compound] | very cloudy with solids precipitating | very cloudy with solids precipitating | very cloudy with solids precipitating |  |
| clear with no solids precipitating | clear with no solids precipitating | clear with no solids precipitating | ILVLLIII (SEQ ID NO: 1)-HMBA-DDDDDEEKEEEE (SEQ ID NO: 2) [Group 1] |  |  |  |  |
|  |  |  | ILVLLIII (SEQ ID NO: 1)-HPA-RRRRREDKKKKK (SEQ ID NO: 3) [Group 2] | completely dissolved | solids still precipitated | solids still precipitated | obviously not better than that of the first group |
